The numbers were not newly measured in US9687472B2, “Use of antioxidants as an adjuvant to immune stimulators to augment tumor immunity and prevent toxicity associated with oxidative stress” (BATU BIOLOGICS, priority 2014, dated 2017), which cites them from elsewhere.

For one data set, the system named is human endothelial cells. The note with it: hypoxic (24 hours; 1% O(2))/reoxygenated (3 hours; 21% O(2)) cells.
For the next data set, the system named is endothelial cell. The note with it: in vitro.
Data set [1] concerns circulating apoptotic endothelial cells. The note with it: 2.5 g intravenously and 3 days of 4 g per day oral.
For data set [2], the system named is human umbilical vein endothelial (HUVEC) cells. The note with it: in response to TNF-alpha, in vitro.
For data set [3] the following is noted: 10 mg/kg intravenously before induction of sepsis.
For data set [4] the following is noted: i.v. 66 mg/kg/hr for 24 hours.
Another data set deals with complement system. The note with it: patients.

As for `O=C[C@@H](O)[C@@H](O)[C@H](O)[C@H](O)CO` [D-mannose], in the data set with human endothelial cells, the “complement activation (iC3b deposition)” value was “blocked activation”.
For the molecule `CC(=O)N[C@H]1C(O)O[C@H](CO)[C@@H](O)[C@@H]1O` (stereo partly drawn) [N-acetyl-D-glucosamine], the “complement activation (iC3b deposition)” value with human endothelial cells is “blocked activation”.
Regarding `O=C1O[C@H]([C@@H](O)CO)C(O)=C1O` [AA, ascorbic acid], the “TNF-alpha induced endothelial cell apoptosis” value in the data set on endothelial cell is “reduction”. Besides, the “circulating apoptotic endothelial cells” value in data set [1] is “reduction”. For the same molecule, the “endothelial cell expression of ICAM-1” value in data set [2] is given as “reduce”. In data set [3], the survival is 50%. Besides, in data set [4], the “24 hr total fluid infusion volume” value is given as “statistically significant reductions”, the “fluid retention (indicative of vascular leakage)” value was “statistically significant reductions” and the “need for mechanical ventilation” value is 12.1 ± 8.8 days.
Take `O=C[C@H](O)[C@H](O)[C@@H](O)[C@@H](O)CO` [L-mannose]: the “complement activation (iC3b deposition)” value in the data set with human endothelial cells is reported as “not”.

B1: C1 esterase inhibitor: complement inhibitor (protein, UniProt P05155 23-500, looked up)
Plasma protease C1 inhibitor: NPNATSSSSQDPESLQDRGEGKVATTVISKMLFVEPILEVSSLPTTNSTTNSATKITANTTDEPTTQPTTEPTTQPTIQPTQPTTQLPTDSPTQPTTGSFCPGPVTLCSDLESHSTEAVLGDALVDFSLKLYHAFSAMKKVETNMAFSPFSIASLLTQVLLGAGENTKTNLESILSYPKDFTCVHQALKGFTTKGVTSVSQIFHSPDLAIRDTFVNASRTLYSSSPRVLSNNSDANLELINTWVAKNTNNKISRLLDSLPSDTRLVLLNAIYLSAKWKTTFDPKKTRMEPFHFKNSVIKVPMMNSKKYPVAHFIDQTLKAKVGQLQLSHNLSLVILVPQNLKHRLEDMEQALSPSVFKAIMEKLEMSKFQPTLLTLPRIKVTTSQDMLSIMEKLEFFDFSYDLNLCGLTEDPDLQVSAMQHQTVLELTETGVEAAAASAISVARTLLVFEVQQPFLFVLWDQQHKFPVFMGRVYDPRA
Take B1: the “IL-2 induced hypotension and complement activation” value in the data set on complement system is reported as “capable of reducing”.
